Values of other authors in US20170020817A1, “SOLID NANOPARTICLE FORMULATION OF MICROTUBLE INHIBITORS WITH REDUCED OSTWALD REPENING FOR ORAL ADMINISTRATION” (Luminus Biosciences, Inc., priority 2013, published 2017).

Columns and labels:
[1] = tested on: microtubules; conditions: most test systems

solubility in water | Structure (SMILES) | effectiveness relative to epothilone A [1]
about 14 mg/L | CC(=O)O[C@@]12CO[C@@H]1C[C@H](O)[C@@]1(C)C(=O)[C@H](O)C3=C(C)[C@@H](OC(=O)[C@H](O)[C@@H](NC(=O)OC(C)(C)C)c4ccccc4)C[C@@](O)([C@@H](OC(=O)c4ccccc4)[C@H]21)C3(C)C [docetaxel] | 
about 0.4 mg/L | CC(=O)O[C@H]1C(=O)[C@@]2(C)[C@H]([C@H](OC(=O)c3ccccc3)[C@]3(O)C[C@H](OC(=O)[C@H](O)[C@@H](NC(=O)c4ccccc4)c4ccccc4)C(C)=C1C3(C)C)[C@]1(OC(C)=O)CO[C@@H]1C[C@@H]2O [paclitaxel] | 

Continued, molecule first:

Structure (SMILES) | solubility in water | effectiveness relative to epothilone A [1]
C/C(=C\c1csc(C)n1)[C@@H]1C[C@@H]2O[C@]2(C)CCC[C@H](C)[C@H](O)[C@@H](C)C(=O)C(C)(C)[C@@H](O)CC(=O)N1 [Ixabepilone] | about 3.5 mg/L | 
CO[C@H]1C(=O)[C@]2(C)[C@@H](OC)C[C@H]3OC[C@@]3(OC(C)=O)[C@H]2[C@H](OC(=O)c2ccccc2)[C@]2(O)C[C@H](OC(=O)[C@H](O)[C@@H](NC(=O)OC(C)(C)C)c3ccccc3)C(C)=C1C2(C)C [cabazitaxel] | about 8 mg/L | 
C/C(=C\c1csc(C)n1)[C@@H]1C[C@@H]2O[C@]2(C)CCC[C@H](C)[C@H](O)[C@@H](C)C(=O)C(C)(C)[C@@H](O)CC(=O)O1 [epothilone B] |  | approximately ten-time more effective
